Assay results: patent publication US8183272B2, “Indanyl compounds” (Daiichi Sankyo Company, Limited, priority 2008, dated 2012)
Structures can show the parent of a compound that is named as a salt.

These compounds were tested against T1, human calcium-sensing receptor (CaSR) (Homo sapiens, UniProt P41180) (assay: Inhibitory activity on calcium-sensing receptor (CaSR) using intracellular calcium increase as an indicator (FLIPR, CHO/hCaSR)). Conditions: CHO/hCaSR cells; intracellular Ca increase induced by CaCl2; test compound 1.05 to 10,000 nM.
T1 construct: expressed in transfected cells; host or cells: CHO cells (CHO/hCaSR)
T1 sequence (P41180 20-1078): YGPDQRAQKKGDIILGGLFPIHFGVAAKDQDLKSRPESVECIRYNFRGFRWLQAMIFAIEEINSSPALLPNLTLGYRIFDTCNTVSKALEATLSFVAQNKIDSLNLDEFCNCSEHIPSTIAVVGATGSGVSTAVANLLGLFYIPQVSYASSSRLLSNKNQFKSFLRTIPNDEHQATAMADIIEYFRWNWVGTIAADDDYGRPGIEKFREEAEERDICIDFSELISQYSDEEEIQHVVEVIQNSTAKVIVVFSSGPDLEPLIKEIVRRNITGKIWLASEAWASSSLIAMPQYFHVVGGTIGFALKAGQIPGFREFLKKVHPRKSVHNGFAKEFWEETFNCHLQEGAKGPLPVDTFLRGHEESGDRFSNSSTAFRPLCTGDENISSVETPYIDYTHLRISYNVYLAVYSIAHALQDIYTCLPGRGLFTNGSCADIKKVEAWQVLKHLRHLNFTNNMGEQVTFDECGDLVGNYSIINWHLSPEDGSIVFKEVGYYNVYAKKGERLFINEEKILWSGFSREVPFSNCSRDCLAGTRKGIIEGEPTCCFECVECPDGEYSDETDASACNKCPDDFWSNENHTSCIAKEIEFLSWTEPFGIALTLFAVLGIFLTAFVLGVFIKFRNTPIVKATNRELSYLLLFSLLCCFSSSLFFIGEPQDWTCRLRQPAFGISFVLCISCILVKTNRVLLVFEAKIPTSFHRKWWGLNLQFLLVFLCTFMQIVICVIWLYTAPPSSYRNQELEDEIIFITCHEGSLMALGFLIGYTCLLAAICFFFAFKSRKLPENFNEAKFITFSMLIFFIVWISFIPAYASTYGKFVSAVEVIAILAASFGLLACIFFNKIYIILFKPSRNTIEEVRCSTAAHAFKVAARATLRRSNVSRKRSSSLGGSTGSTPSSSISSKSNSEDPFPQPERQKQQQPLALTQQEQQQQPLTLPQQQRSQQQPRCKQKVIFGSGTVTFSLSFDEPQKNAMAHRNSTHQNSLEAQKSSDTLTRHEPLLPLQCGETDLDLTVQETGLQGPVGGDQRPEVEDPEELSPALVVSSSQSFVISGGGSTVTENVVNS
Format: cell-based
Method: Evaluation of inhibitory activity on calcium-sensing receptor (CaSR) using intracellular calcium increase as an indicator
The preparation which is prepared by adding CHO/hCaSR to F12 medium (manufactured by Invitrogen) containing 10% fetal bovine serum to have 2×10^5 cells/mL was applied to a 384-well in an amount of 50 μL/well, and then incubated overnight in a CO2 incubator. The culture supernatant was completely removed, the assay buffer (20 mM HEPES, HBSS (Ca and Mg free) containing 2.5 mM probenecid, pH 7.4) containing Calcium 3 (manufactured by Molecular Devices), i.e., a fluorescent intracellular calcium indicator, was added thereto in an amount of 25 μL/well, and the mixture was maintained for 1 hour in a CO2 incubator. Meanwhile, Calcium 3 was prepared according to the protocol enclosed in FLIPR Calcium 3 Assay Kit (manufactured by Molecular Devices). After maintaining it for 1 hour, a solution in which the test compound is prepared to have 2.1 to 20,000 nM (final concentration of 1.05 to 10,000 nM) by an assay buffer was added thereto in an amount of 25 μL/well, and maintained for 15 minutes in a CO2 incubator. Then, the CaCl2 solution prepared to have […] by using the assay buffer was added in an amount of 25 μL/well, and the resulting intracellular Ca increase (i.e., fluorescence intensity) was measured over time using a fluorescence imaging plate reader (FLIPR, manufactured by Molecular Devices). From the data obtained, the difference between the fluorescence intensity before the addition of CaCl2 solution and the maximum fluorescence intensity after the addition of CaCl2 solution was calculated, and the 50% inhibition concentration (IC50) of the test compound was obtained.

Q: How did the IC50 turn out when `C[C@@H](OC[C@H](O)CNC(C)(C)CC1Cc2ccccc2C1)c1ccccc1CCCCC(=O)O` [Example 13, 5-{2-[(1R)-1-{[(2R)-3-{[1-(2,3-Dihydro-1H-inden-2-yl)-2-methylpropan-2-yl]amino}-2-hydroxypropyl]oxy}ethyl]phenyl}pentanoic acid] was run?
A: ≤ 2.35 µM

Q: Which IC50 does the source give for `C[C@@H](OC[C@H](O)CNC(C)(C)CC1Cc2ccccc2C1)c1cccc(F)c1CCC(=O)O` [Example 7, 3-{2-[(1R)-1-{[(2R)-3-{[1-(2,3-Dihydro-1H-inden-2-yl)-2-methylpropan-2-yl]amino}-2-hydroxypropyl]oxy}ethyl]-6-fluorophenyl}propanoic acid] here?
A: ≤ 2.4 µM

Q: `C[C@@H](OC[C@H](O)CNC(C)(C)CC1Cc2ccccc2C1)c1cc(Cl)ccc1CCC(=O)O` [Example 70] was tested. Which IC50 did it give?
A: ≤ 2.32 µM

Q: Which IC50 does the source give for `CCC[C@@H](OC[C@H](O)CNC(C)(C)CC1Cc2ccccc2C1)c1cc(Cl)ccc1CCC(=O)O` [Example 76] here?
A: ≤ 2.19 µM

Q: For `C[C@@H](OC[C@H](O)CNC(C)(C)CC1Cc2ccccc2C1)c1ccccc1CCCCCCC(=O)O` [Example 68], which IC50 is on record?
A: ≤ 2.22 µM

Q: Which IC50 does the source give for `CC[C@@H](OC[C@H](O)CNC(C)(C)CC1Cc2ccccc2C1)c1ccccc1CCC(=O)O` [Example 18] here?
A: ≤ 2.42 µM

Q: `CCOc1cccc([C@@H](C)OC[C@H](O)CNC(C)(C)CC2Cc3ccccc3C2)c1CCCCC(=O)O` [Example 63] was tested. Which IC50 did it give?
A: ≤ 2.15 µM

Q: How did the IC50 turn out when `C[C@@H](OC[C@H](O)CNC(C)(C)CC1Cc2ccccc2C1)c1cccc(C(F)(F)F)c1CCC(=O)O` [Example 10, 3-{2-[(1R)-1-{[(2R)-3-{[1-(2,3-Dihydro-1H-inden-2-yl)-2-methylpropan-2-yl]amino}-2-hydroxypropyl]oxy}ethyl]-6-(trifluoromethyl)phenyl}propanoic acid] was run?
A: ≤ 2.17 µM

Q: `C[C@@H](OC[C@H](O)CNC(C)(C)CC1Cc2ccccc2C1)c1ccccc1CCc1nn[nH]n1` [Example 81, (2R)-1-{[2-(2,3-Dihydro-1H-inden-2-yl)-1,1-dimethylethyl]amino}-3-[(1R)-1-{2-[2-(2H-tetrazol-5-yl)ethyl]phenyl}ethoxy]propan-2-ol formate] was tested. Which IC50 did it give?
A: ≤ 2.16 µM

Q: How did the IC50 turn out when `CC[C@@H](OC[C@H](O)CNC(C)(C)CC1Cc2ccccc2C1)c1cc(F)c(C)cc1CCCCC(=O)O` [Example 61] was run?
A: ≤ 2.14 µM

Q: Which IC50 does the source give for `C[C@@H](OC[C@H](O)CNC(C)(C)CC1Cc2ccccc2C1)c1cc(C(F)(F)F)ccc1CCC(=O)O` [Example 49] here?
A: ≤ 2.17 µM

Q: For `CC[C@@H](OC[C@H](O)CNC(C)(C)CC1Cc2ccccc2C1)c1cccc(Cl)c1CCC(=O)O` [Example 75], which IC50 is on record?
A: ≤ 2.25 µM

Q: `COc1cc(F)cc([C@@H](C)OC[C@H](O)CNC(C)(C)CC2Cc3ccccc3C2)c1CCC(=O)O` [Example 35] was tested. Which IC50 did it give?
A: ≤ 2.26 µM

Q: `CCOc1ccc(CCC(=O)O)c([C@@H](C)OC[C@H](O)CNC(C)(C)CC2Cc3ccccc3C2)c1` [Example 56] was tested. Which IC50 did it give?
A: ≤ 2.27 µM

Q: For `C[C@@H](OC[C@H](O)CNC(C)(C)CC1Cc2ccccc2C1)c1cccc(OC(F)F)c1CCC(=O)O` [Example 66], which IC50 is on record?
A: ≤ 2.18 µM

Q: `CC[C@@H](OC[C@H](O)CNC(C)(C)CC1Cc2ccccc2C1)c1cc(F)c(F)cc1CCC(=O)O` [Example 79] was tested. Which IC50 did it give?
A: ≤ 2.25 µM

Q: How did the IC50 turn out when `Cc1ccc(CCC(=O)O)c([C@@H](C)OC[C@H](O)CNC(C)(C)CC2Cc3ccccc3C2)c1` [Example 6, 3-{2-[(1R)-1-{[(2R)-3-{[1-(2,3-Dihydro-1H-inden-2-yl)-2-methylpropan-2-yl]amino}-2-hydroxypropyl]oxy}ethyl]-4-methylphenyl}propanoic acid] was run?
A: ≤ 2.42 µM

Q: `C[C@@H](OC[C@H](O)CNC(C)(C)CC1Cc2ccccc2C1)c1cc(F)cc(F)c1CCC(=O)O` [Example 27] was tested. Which IC50 did it give?
A: ≤ 2.31 µM

Q: Which IC50 does the source give for `CC[C@@H](OC[C@H](O)CNC(C)(C)CC1Cc2ccccc2C1)c1cc(F)cc(F)c1CCC(=O)O` [Example 80] here?
A: ≤ 2.25 µM

Q: For `CCOc1cccc([C@@H](C)OC[C@H](O)CNC(C)(C)CC2Cc3ccccc3C2)c1CCC(=O)O` [Example 62], which IC50 is on record?
A: ≤ 2.27 µM

Q: Which IC50 does the source give for `C[C@@H](OC[C@H](O)CNC(C)(C)CC1Cc2ccccc2C1)c1ccc(Cl)cc1CCC(=O)O` [Example 69] here?
A: ≤ 2.32 µM

Q: `C[C@@H](OC[C@H](O)CNC(C)(C)CC1Cc2ccccc2C1)c1ccc(F)cc1CCC(=O)O` [Example 8, 3-{2-[(1R)-1-{[(2R)-3-{[1-(2,3-Dihydro-1H-inden-2-yl)-2-methylpropan-2-yl]amino}-2-hydroxypropyl]oxy}ethyl]-5-fluorophenyl}propanoic acid] was tested. Which IC50 did it give?
A: ≤ 2.4 µM

Q: `CC(C)Oc1cccc([C@@H](C)OC[C@H](O)CNC(C)(C)CC2Cc3ccccc3C2)c1CCC(=O)O` [Example 64] was tested. Which IC50 did it give?
A: ≤ 2.21 µM

Q: How did the IC50 turn out when `CC[C@@H](OC[C@H](O)CNC(C)(C)CC1Cc2ccccc2C1)c1cccc(OC)c1CCC(=O)O` [Example 41] was run?
A: ≤ 2.27 µM

Q: `CC[C@@H](OC[C@H](O)CNC(C)(C)CC1Cc2ccccc2C1)c1cc(F)ccc1CCC(=O)O` [Example 38] was tested. Which IC50 did it give?
A: ≤ 2.33 µM

Q: `Cc1ccc(CCCCC(=O)O)c([C@@H](C)OC[C@H](O)CNC(C)(C)CC2Cc3ccccc3C2)c1` [Example 46] was tested. Which IC50 did it give?
A: ≤ 2.28 µM

Q: For `Cc1cc(CCC(=O)O)c([C@@H](C)OC[C@H](O)CNC(C)(C)CC2Cc3ccccc3C2)cc1F` [Example 22], which IC50 is on record?
A: ≤ 2.33 µM

Q: Which IC50 does the source give for `Cc1cccc([C@@H](C)OC[C@H](O)CNC(C)(C)CC2Cc3ccccc3C2)c1CCCCC(=O)O` [Example 47] here?
A: ≤ 2.28 µM

Q: Which IC50 does the source give for `C[C@@H](OC[C@H](O)CNC(C)(C)CC1Cc2ccccc2C1)c1cc(F)ccc1CCCCC(=O)O` [Example 45] here?
A: ≤ 2.27 µM

Q: How did the IC50 turn out when `CCC[C@@H](OC[C@H](O)CNC(C)(C)CC1Cc2ccccc2C1)c1ccc(Cl)cc1CCC(=O)O` [Example 77] was run?
A: ≤ 2.19 µM

Q: Which IC50 does the source give for `CCC[C@@H](OC[C@H](O)CNC(C)(C)CC1Cc2ccccc2C1)c1cccc(Cl)c1CCC(=O)O` [Example 78] here?
A: ≤ 2.19 µM

Q: Which IC50 does the source give for `CCC[C@@H](OC[C@H](O)CNC(C)(C)CC1Cc2ccccc2C1)c1cc(F)ccc1CCC(=O)O` [Example 51] here?
A: ≤ 2.27 µM

Q: `Cc1ccc([C@@H](C)OC[C@H](O)CNC(C)(C)CC2Cc3ccccc3C2)c(CCC(=O)O)c1` [Example 5, 3-{2-[(1R)-1-{[(2R)-3-{[1-(2,3-Dihydro-1H-inden-2-yl)-2-methylpropan-2-yl]amino}-2-hydroxypropyl]oxy}ethyl]-5-methylphenyl}propanoic acid] was tested. Which IC50 did it give?
A: ≤ 2.42 µM

Q: With `C[C@@H](OC[C@H](O)CNC(C)(C)CC1Cc2ccccc2C1)c1cccc(F)c1CCCCC(=O)O` [Example 48] as the compound, how does the IC50 read?
A: ≤ 2.27 µM

Q: With `Cc1ccc([C@@H](C)OC[C@H](O)CNC(C)(C)CC2Cc3ccccc3C2)c(CCCCC(=O)O)c1` [Example 43] as the compound, how does the IC50 read?
A: ≤ 2.28 µM

Q: Which IC50 does the source give for `C[C@@H](OC[C@H](O)CNC(C)(C)CC1Cc2ccccc2C1)c1cc(F)c(F)cc1CCC(=O)O` [Example 26] here?
A: ≤ 2.31 µM

Q: With `CCOc1ccc(CCCCC(=O)O)c([C@@H](C)OC[C@H](O)CNC(C)(C)CC2Cc3ccccc3C2)c1` [Example 58] as the compound, how does the IC50 read?
A: ≤ 2.15 µM

Q: Which IC50 does the source give for `C[C@@H](OC[C@H](O)CNC(C)(C)CC1Cc2ccccc2C1)c1ccc(F)cc1CCCCC(=O)O` [Example 44] here?
A: ≤ 2.27 µM

Q: With `C[C@@H](OC[C@H](O)CNC(C)(C)CC1Cc2ccccc2C1)c1cc(C(F)(F)F)ccc1CCCCC(=O)O` [Example 50] as the compound, how does the IC50 read?
A: ≤ 2.05 µM

Q: With `Cc1cc(-c2ccccc2[C@@H](C)OC[C@H](O)CNC2(CC3Cc4ccccc4C3)CC2)ccc1C(=O)O` [Example 12, 2′-[(1R)-1-{[(2R)-3-{[1-(2,3-Dihydro-1H-inden-2-ylmethyl)cyclopropyl]amino}-2-hydroxypropyl]oxy}ethyl]-3-methylbiphenyl-4-carboxylic acid] as the compound, how does the IC50 read?
A: ≤ 2.2 µM

Q: How did the IC50 turn out when `COc1ccc([C@@H](C)OC[C@H](O)CNC(C)(C)CC2Cc3ccccc3C2)c(CCC(=O)O)c1` [Example 16] was run?
A: ≤ 2.34 µM
